Assay results taken from ChEMBL document CHEMBL1255180, “Thieno[3,2-c]pyrazoles: a novel class of Aurora inhibitors with favorable antitumor activity” (Bioorg Med Chem, 2010).

Experiments:
Type in all cases: ADME, organism-based
Parameters in all cases: dose 10 mg/kg, route intravenous
[1] = Cmax in CD1 mouse at 10 mg/kg, iv bid; settings: in vivo
[2] = Half life in CD1 mouse at 10 mg/kg, iv bid; settings: in vivo
[3] = AUC in CD1 mouse at 10 mg/kg, iv bid; settings: plasma
[4] = Clearance in CD1 mouse at 10 mg/kg, iv bid; settings: in vivo
[5] = Volume of distribution in CD1 mouse at 10 mg/kg, iv bid; settings: in vivo

## O=C(Nc1n[nH]c2cc(C(=O)N[C@H](CN3CCCC3)c3ccccc3)sc12)c1ccc(N2CCOCC2)cc1
[1]
  Cmax: 9 µM
[2]
  half-life: 7 h
[3]
  AUC: 9 µM·h
[4]
  clearance: 50 mL/min/kg
[5]
  Vd: 16 L/kg
